Reference: patent publication US12201602B2, “Medicament comprising combination of sepetaprost and Rho-associated coiled-coil containing protein kinase inhibitor” (SANTEN PHARMACEUTICAL CO., LTD., priority 2017, dated 2025)

Legend:
normal pressure monkeys [1] = assay: Intraocular pressure lowering effect of sepetaprost and netarsudil, alone and concomitantly (Example 2); type: in vivo, cynomolgus monkey; conditions: eye drop 20 μL/eye, sepetaprost 0.0003% (w/v), netarsudil 0.01% (w/v), average of 8 monkeys
Protocol: In order to examine usefulness of the combination of sepetaprost and a Rho-associated coiled-coil containing protein kinase inhibitor(s), the effect of lowering an intraocular pressure when sepetaprost and netarsudil which is a Rho-associated coiled-coil containing protein kinase inhibitor were administered concomitantly to experimental animals (normal pressure monkeys) was investigated. Sepetaprost was dissolved in purified water containing a solubilizing agent, and then, a sepetaprost solution with a desired concentration was prepared by using a commonly used method. […] An effect of lowering an intraocular pressure when sepetaprost and netarsudil were administered concomitantly was investigated. As a comparative subject, an effect of lowering an intraocular pressure when sepetaprost or netarsudil was administered alone was also investigated. As a control, the base of the sepetaprost solution and the base of the netarsudil solution were administered. […] Also, the intraocular pressure was measured each three times, and the average value was calculated. With respect to the changed value of the intraocular pressure (mmHg), a difference from the value of the intraocular pressure before administration at each measurement time point was calculated. […] The test was carried out in the same manner as the above-mentioned concomitant administration test except for changing the netarsudil solution to the base of the netarsudil solution. The test was carried out in the same manner as the above-mentioned concomitant administration test except for changing the sepetaprost solution to the base of the sepetaprost solution. The test was carried out in the same manner as the above-mentioned concomitant administration test except for changing the sepetaprost solution to the base of the sepetaprost solution and changing the netarsudil solution to the base of the netarsudil solution. The changes in the lowering of the intraocular pressure with the lapse of time for each administered group are shown in FIG. 2 and Table 2. The change in the intraocular pressure values are shown by an average value ±SEM of the difference from the value (0 hour) before administration of eight monkeys in each group with regard to each measurement time point of each individual. Comparison of the control group with the sepetaprost group, the netarsudil group, or the sepetaprost/netarsudil concomitant use group, and comparison of the sepetaprost/netarsudil concomitant use group with the sepetaprost group or the netarsudil group was carried out by, after carrying out the Bartlett test, in the case where dispersion is uniform, using the Dunnett test, or in the case of ununiform, using the Steel test. The significance level with respect to the control group was shown as *: p<0.05 and **: p<0.01 in the Steel test, and *: […] in the Dunnett test.

normal pressure monkeys [2] = assay: Intraocular pressure lowering effect of sepetaprost and ripasudil, alone and concomitantly (Example 1); type: in vivo, cynomolgus monkey; conditions: eye drop 20 μL/eye, sepetaprost 0.0003% (w/v), ripasudil 0.4% (w/v), average of 8 monkeys
Protocol: In order to examine usefulness of the combination of sepetaprost and a Rho-associated coiled-coil containing protein kinase inhibitor(s), the effect of lowering an intraocular pressure when sepetaprost and ripasudil which is a Rho-associated coiled-coil containing protein kinase inhibitor were administered concomitantly to experimental animals (normal pressure monkeys) was investigated. Sepetaprost was dissolved in purified water containing a solubilizing agent, and then, a sepetaprost solution with a desired concentration was prepared by using a commonly used method. Commercially available ripasudil eye drop (Kowa Company, Ltd., […] (Registered Trademark) eye drops 0.4%) was used as it was. An effect of lowering an intraocular pressure when sepetaprost and ripasudil were administered concomitantly was investigated. As a comparative subject, an effect of lowering an intraocular pressure when sepetaprost or ripasudil was administered alone was also investigated. As a control, the base of the sepetaprost solution and physiological saline solution were administered. • Sepetaprost solution: 0.0003% (w/v) sepetaprost solution (volume of eye dropped: 20 μL/eye) • Ripasudil solution: 0.4% (w/v) ripasudil solution (trade name: […] Also, the intraocular pressure was measured each three times, and the average value was calculated. With respect to the changed value of the intraocular pressure (mmHg), a difference from the value of the intraocular pressure before administration at each measurement time point was calculated. […] The test was carried out in the same manner as the above-mentioned concomitant administration test except for changing the ripasudil solution to the physiological saline solution. The test was carried out in the same manner as the above-mentioned concomitant administration test except for changing the sepetaprost solution to the base of the sepetaprost solution. The test was carried out in the same manner as the above-mentioned concomitant administration test except for changing the sepetaprost solution to the base of the sepetaprost solution and changing the ripasudil solution to the physiological saline solution. The changes in the lowering of the intraocular pressure with the lapse of time for each administered group are shown in FIG. 1 and Table 1. The changes in the intraocular pressure values are shown by an average value ±SEM of the difference from the value (0 hour) before administration of eight monkeys in each group with regard to each measurement time point of each individual. Comparison of the control group with the sepetaprost group, the ripasudil group, or the sepetaprost/ripasudil concomitant use group, and comparison of the sepetaprost/ripasudil concomitant use group with the sepetaprost group or the ripasudil group was carried out by, after carrying out the Bartlett test, in the case where dispersion is uniform, using the Dunnett test, or in the case of ununiform, using the Steel test. The significance level with respect to the control group was shown as ##: p<0.01 in the Dunnett test, and *: p<0.05 and **: p<0.01 in the Steel test.

| SMILES | changed value of the intraocular pressure (difference from value before administration) (normal pressure monkeys [1]; 2 hours after dropping) [mmHg] | changed value of the intraocular pressure (difference from value before administration) (normal pressure monkeys [1]; 4 hours after dropping) [mmHg] | changed value of the intraocular pressure (difference from value before administration) (normal pressure monkeys [1]; 6 hours after dropping) [mmHg] | changed value of the intraocular pressure (difference from value before administration) (normal pressure monkeys [1]; 8 hours after dropping) [mmHg] | changed value of the intraocular pressure (difference from value before administration) (normal pressure monkeys [1]; 24 hours after dropping) [mmHg] | changed value of the intraocular pressure (difference from value before administration) (normal pressure monkeys [2]; 2 hours after dropping) [mmHg] | changed value of the intraocular pressure (difference from value before administration) (normal pressure monkeys [2]; 4 hours after dropping) [mmHg] | changed value of the intraocular pressure (difference from value before administration) (normal pressure monkeys [2]; 6 hours after dropping) [mmHg] | changed value of the intraocular pressure (difference from value before administration) (normal pressure monkeys [2]; 8 hours after dropping) [mmHg] | changed value of the intraocular pressure (difference from value before administration) (normal pressure monkeys [2]; 24 hours after dropping) [mmHg] |
| --- | --- | --- | --- | --- | --- | --- | --- | --- | --- | --- |
| Cc1ccc(C(=O)OCc2ccc([C@@H](CN)C(=O)Nc3ccc4cnccc4c3)cc2)c(C)c1 [Netarsudil, [4-[(1S)-1-(aminomethyl)-2-(isoquinolin-6-ylamino)-2-oxoethyl]phenyl]methyl 2,4-dimethylbenzoate] | −0.4 | −2.2 | −2.1 | −2.3 | −0.6 | – | – | – | – | – |
| C[C@H]1CNCCCN1S(=O)(=O)c1cccc2cncc(F)c12 [Ripasudil, (S)-(−)-1-(4-fluoro-5-isoquinolinesulfonyl)-2-methyl-1,4-homopiperazine] | – | – | – | – | – | −2.4 | −1.8 | −1.6 | −1.5 | −0.4 |
| CC(C)OC(=O)CCC[C@H]1CC[C@@H]2[C@@H](/C=C/[C@@H](O)COc3cc(F)ccc3F)[C@H](O)C[C@@H]2OC1 [Sepetaprost, 2-propanyl 4-{(3S, 5aR, 6R, 7R, 8aS)-6-[(1E, 3R)-4-(2,5-difluorophenoxy)-3-hydroxy-1-buten-1-yl]-7-hydroxyoctahydro-2H-cyclopenta[b]oxepin-3-yl}butanoate] | −0.2 | −1.6 | −2.2 | −2.0 | −1.1 | −0.1 | −0.9 | −1.8 | −1.9 | −0.6 |
